Assay results as given in patent publication US5744121A (priority 1996, dated 1998).
Where two headings read alike, the source gives them in different places.

Legend:
5-HT1A receptor = assay: Blocking studies: regional brain uptake ratios in rats; format: in vivo; details: pretreated rats, 30 min post iv injection of tracer
Protocol: In order to further characterize the in vivo brain uptake of 1a in rats, blocking studies were carried out to determine changes of the ratios of regional brain uptake. […] Ratios for each region were calculated based on the % dose/gram of each region divided by the same in CB. […] (HP: hippocampus; CB: cerebellum; HY: hypothalamus; CX: cortex; ST: striatum).

[1] = target: T1, 5-HT1A receptor (rat hippocampus tissue homogenates) (Rattus norvegicus, UniProt P19327); assay: Saturation binding of [^125 I]p-MPPI to rat hippocampus tissue homogenates
T1 construct: in rat hippocampal membrane preparations; from tissue; host or cells: rat hippocampus (membrane preparations / tissue homogenates)
T1 sequence (P19327 1-422): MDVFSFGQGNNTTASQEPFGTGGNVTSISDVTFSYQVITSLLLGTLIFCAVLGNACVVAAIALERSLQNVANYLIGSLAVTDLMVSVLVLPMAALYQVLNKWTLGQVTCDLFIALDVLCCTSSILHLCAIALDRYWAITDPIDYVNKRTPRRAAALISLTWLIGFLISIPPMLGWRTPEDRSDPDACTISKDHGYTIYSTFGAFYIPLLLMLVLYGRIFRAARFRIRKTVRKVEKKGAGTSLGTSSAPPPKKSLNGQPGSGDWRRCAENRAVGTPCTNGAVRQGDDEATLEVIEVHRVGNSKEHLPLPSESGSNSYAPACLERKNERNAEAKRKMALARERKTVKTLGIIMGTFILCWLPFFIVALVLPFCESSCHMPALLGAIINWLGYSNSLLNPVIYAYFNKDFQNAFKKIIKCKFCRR

[2] = target: T2, 5-HT1A receptor (rat hippocampal homogenates) (Rattus norvegicus, UniProt P19327); assay: Inhibition of [^125 I]-p-MPP binding to rat hippocampal homogenates
T2 construct: in rat hippocampal membrane preparations; from tissue; host or cells: rat hippocampus (membrane preparations / tissue homogenates)
T2 sequence (P19327 1-422): T1 sequence (P19327 1-422)

[3] = Regional brain distribution in rats after iv injection; format: in vivo, Male Sprague-Dawley rats; details: rat; for tissue uptake at 0.05 h: 3 min; for tissue uptake at 2 h: 120 min
Protocol: While the rats were under ether anesthesia, 0.2 mL of a saline solution containing [^123 I]1a and 1b (8-10 μCi) was injected directly into the femoral vein, and rats were sacrificed at various time points postinjection by cardiac excision under ether anesthesia. The organs of interest were removed and weighed and the radioactivity was counted with a Packard garnma automatic counter (Model 5000). The percentage dose per organ was calculated by a comparison of the tissue counts to suitably diluted aliquots of the injected material. Total activities of blood and muscle were calculated under the assumption that they were 7% and 40% of the total body weight, respectively.
By dissecting, weighing and counting samples from different brain regions (cortex, striatum, hippocampus, hypothalamus and cerebellum), the percentage dose/gram of the sample was calculated by comparing the sample counts with the count of the diluted initial dose.

[4] = target: T2, 5-HT1A receptor (rat hippocampal homogenates); assay: Inhibition of [^125 I]-8-OH-PIPAT binding to rat hippocampal homogenates; details: ligand [^125 I]-8-OH-PIPAT
Description: The 5-HT1A binding affinity of p-, m-, o- MPPI, p-fluoro- and p-nitro-MPP derivatives (1a-f) in rat hippocampal membrane preparations with [^123 ]

[5] = Biodistribution in rats after iv injection; format: in vivo, Male Sprague-Dawley rats; details: average of 3 rats ± SD
Protocol: Male Sprague-Dawley rats (225-300 g), allowed free access to food and water, were used for an in vivo biodistribution study. While the rats were under ether anesthesia, 0.2 mL of a saline solution containing [^123 I]1a and 1b (8-10 μCi) was injected directly into the femoral vein, and rats were sacrificed at various time points postinjection by cardiac excision under ether anesthesia. The organs of interest were removed and weighed and the radioactivity was counted with a Packard […] automatic counter (Model 5000). The percentage dose per organ was calculated by a comparison of the tissue counts to suitably diluted aliquots of the injected material.

[6] = Stability of the radiolabelled product on storage; format: physicochemical; details: -20° C., at least four weeks, HPLC; 40320 min
[7] = system: 5-HT1A receptor (rat hippocampal membranes); details: cited from earlier work
[8] = ligand [^125 I]-p-MPP, rat hippocampal homogenates, read-out: Ki
[9] = cerebellum, iv, rats (Table IV), read-out: Regional distribution, cerebellum
[10] = cortex, iv, rats (Table IV), read-out: Regional distribution, cortex
[11] = hippocampus, iv, rats (Table IV), read-out: Regional distribution, hippocampus
[12] = hypothalamus, iv, rats (Table IV), read-out: Regional distribution, hypothalamus
[13] = striatum, iv, rats (Table IV), read-out: Regional distribution, striatum

Question: For `CCCN(CCC)C1CCc2cccc(O)c2C1` (racemic) [(± 8-OH-DPAT), 8-hydroxy-2-(N,N-di-n-propyl)aminotetralin, reference compound], which “specific uptake of [^123 I] or [^125 I]1a in the hippocampus after pretreatment” value (5-HT1A receptor) is on record?
Answer: mark decrease

Question: What does the source list for `COc1ccccc1N1CCN(CCN(C(=O)c2ccc([125I])cc2)c2ccccn2)CC1` [[^125 I]-MPPI]?
Answer: Bmax ([1]; 37° C., 15 min, 50 mM Tris-HCl pH 7.4, 2 mM MgCl2, 10 μM 5-HT for nonspecific binding): 264 fmol/mg of protein; Kd ([1]; 37° C., 15 min, 50 mM Tris-HCl pH 7.4, 2 mM MgCl2, 10 μM 5-HT for nonspecific binding, read-out: Kd (FIG. 1)): 0.36 nM; Kd ([1]; rat hippocampal homogenates, Kung, Unpublished data, read-out: Kd (Table I footnote)): 0.3 nM

Question: For `O=C(c1ccc(F)cc1)C1CCN(CCn2c(=O)[nH]c3ccccc3c2=O)CC1` [hetanserin], which Ki [2] is on record?
Answer: 1970 ± 98 nM

Question: What does the source list for `COc1ccccc1N1CCN(CCN(C(=O)c2cccc(I)c2)c2ccccn2)CC1` [Compound 1b, 4-(2'-methoxy)phenyl-1-[2"-(N-2"-pyridinyl)-m-iodobenzamido]ethyl piperazine]?
Answer: tissue uptake at 1 h ([3]; hippocampus, 60 minutes after iv injection, ^123 I labeled, read-out: Uptake in hippocampal tissue): 0.013 %ID/g; Ki [4]: 1.7 ± 0.1 nM; Brain uptake ([5]; 2 min): 0.76 % dose/organ; Ki [2, 8]: 2.46 ± 0.14 nM; purity on storage [6]: > 95%

Question: With `O=C(CCCN1CCC2(CC1)C(=O)NCN2c1ccccc1)c1ccc(F)cc1` [spiperone] as the compound, how does the Ki [2, 8] read?
Answer: 12.2 ± 2.2 nM

Question: Which results are given for `COc1ccccc1N1CCN(C[C@@H](C(=O)NC(C)(C)C)c2ccccc2)CC1` [(5)-WAY 100135, N-tert-butyl-3-(4-(-2-methoxyphenyl)piperazin-1-yl)-2-phenylpropionamide]?
Answer: selectivity ([7]; 5-HT1A receptor): selective antagonist at both somatodendritic and postsynaptic receptor; IC50 ([7]; rat hippocampal membranes): 15 nM

Question: For `COc1ccccc1N1CCN(CCN(C(=O)c2ccc(F)cc2)c2ccccn2)CC1` [Compound 1d], which Ki [4] is on record?
Answer: 3.3 ± 0.8 nM

Question: With `COc1cccc(OC)c1OCCNCC1COc2ccccc2O1` (stereo not shown) [WB 4101] as the compound, how does the Ki [2, 8] read?
Answer: 5 ± 0.5 nM

Question: For `COc1ccccc1N1CCN(CCN(C(=O)c2ccc(I)cc2)c2ncccn2)CC1` [Compound 1g, 4(2'-methoxy)phenyl-1-[2'-(N-2"-pyrimidinyl)-p-iodobenzamido] ethy piperazine], which Ki [4] is on record?
Answer: 6.08 ± 0.8 nM

Question: For `COc1ccccc1N1CCN(CCN(C(=O)c2cccc([123I])c2)c2ccccn2)CC1` [[^123 I] 1b], which tissue uptake at 2 min [3, 9] is on record?
Answer: 0.47 ± 0.01 %ID/g

Question: What about the tissue uptake at 0.05 h [3, 9] of the same compound?
Answer: 0.039 ± 0.003 %ID/g

Question: What about the tissue uptake at 1 h ([3]; cerebellum, 60 min, iv, rats (Table IV), read-out: Regional distribution, cerebellum) of the same compound?
Answer: 0.014 ± 0.004 %ID/g

Question: And the tissue uptake at 2 h [3, 9]?
Answer: 0.008 ± 0.0004 %ID/g

Question: And the tissue uptake at 2 min [3, 10]?
Answer: 0.5 ± 0.03 %ID/g

Question: What about the tissue uptake at 0.05 h [3, 10] of the same compound?
Answer: 0.043 ± 0.002 %ID/g

Question: And the tissue uptake at 1 h ([3]; cortex, 60 min, iv, rats (Table IV), read-out: Regional distribution, cortex)?
Answer: 0.015 ± 0.005 %ID/g

Question: What about the tissue uptake at 2 h [3, 10] of the same compound?
Answer: 0.008 ± 0.0008 %ID/g

Question: What about the tissue uptake at 2 min [3, 11] of the same compound?
Answer: 0.54 ± 0.03 %ID/g

Question: And the tissue uptake at 0.05 h [3, 11]?
Answer: 0.051 ± 0.005 %ID/g

Question: What about the tissue uptake at 1 h ([3]; hippocampus, 60 min, iv, rats (Table IV), read-out: Regional distribution, hippocampus) of the same compound?
Answer: 0.013 ± 0.004 %ID/g

Question: And the tissue uptake at 2 h [3, 11]?
Answer: 0.006 ± 0.001 %ID/g

Question: And the tissue uptake at 2 min [3, 12]?
Answer: 0.5 ± 0.04 %ID/g

Question: And the tissue uptake at 0.05 h [3, 12]?
Answer: 0.042 ± 0.003 %ID/g

Question: And the tissue uptake at 1 h ([3]; hypothalamus, 60 min, iv, rats (Table IV), read-out: Regional distribution, hypothalamus)?
Answer: 0.015 ± 0.005 %ID/g

Question: And the tissue uptake at 2 h [3, 12]?
Answer: 0.01 ± 0.002 %ID/g

Question: What about the tissue uptake at 2 min [3, 13] of the same compound?
Answer: 0.51 ± 0.003 %ID/g

Question: And the tissue uptake at 0.05 h [3, 13]?
Answer: 0.042 ± 0.004 %ID/g

Question: What about the tissue uptake at 1 h ([3]; striatum, 60 min, iv, rats (Table IV), read-out: Regional distribution, striatum) of the same compound?
Answer: 0.012 ± 0.003 %ID/g

Question: And the tissue uptake at 2 h [3, 13]?
Answer: 0.006 ± 0.0008 %ID/g

Question: And the Blood uptake ([5]; 2 min)?
Answer: 5.06 ± 0.32 % dose/organ

Question: What about the Brain uptake ([5]; 2 min) of the same compound?
Answer: 0.76 ± 0.05 % dose/organ

Question: And the Heart uptake ([5]; 2 min)?
Answer: 0.77 ± 0.08 % dose/organ

Question: What about the Kidney uptake ([5]; 2 min) of the same compound?
Answer: 3.67 ± 0.22 % dose/organ

Question: And the Liver uptake ([5]; 2 min)?
Answer: 25.72 ± 3.29 % dose/organ

Question: What about the Lung uptake ([5]; 2 min) of the same compound?
Answer: 1.87 ± 0.08 % dose/organ

Question: And the Muscle uptake ([5]; 2 min)?
Answer: 14.98 ± 1.16 % dose/organ

Question: And the Skin uptake ([5]; 2 min)?
Answer: 10.16 ± 3.32 % dose/organ

Question: What about the Spleen uptake ([5]; 2 min) of the same compound?
Answer: 0.68 ± 0.12 % dose/organ

Question: And the Thyroid uptake ([5]; 2 min)?
Answer: 0.07 ± 0.02 % dose/organ

Question: What about the Blood uptake ([5]; 30 min) of the same compound?
Answer: 2.27 ± 0.24 % dose/organ

Question: What about the Brain uptake ([5]; 30 min) of the same compound?
Answer: 0.07 ± 0.004 % dose/organ

Question: What about the Heart uptake ([5]; 30 min) of the same compound?
Answer: 0.11 ± 0.008 % dose/organ

Question: And the Kidney uptake ([5]; 30 min)?
Answer: 1.18 ± 0.11 % dose/organ

Question: And the Liver uptake ([5]; 30 min)?
Answer: 8.04 ± 0.63 % dose/organ

Question: And the Lung uptake ([5]; 30 min)?
Answer: 0.31 ± 0.004 % dose/organ

Question: And the Muscle uptake ([5]; 30 min)?
Answer: 10.13 ± 4.90 % dose/organ

Question: And the Skin uptake ([5]; 30 min)?
Answer: 13.71 ± 0.52 % dose/organ

Question: And the Spleen uptake ([5]; 30 min)?
Answer: 0.09 ± 0.01 % dose/organ

Question: And the Thyroid uptake ([5]; 30 min)?
Answer: 0.06 ± 0.02 % dose/organ

Question: And the Blood uptake ([5]; 60 min)?
Answer: 1.21 ± 0.08 % dose/organ

Question: What about the Brain uptake ([5]; 60 min) of the same compound?
Answer: 0.02 ± 0.006 % dose/organ

Question: And the Heart uptake ([5]; 60 min)?
Answer: 0.05 ± 0.005 % dose/organ

Question: What about the Kidney uptake ([5]; 60 min) of the same compound?
Answer: 0.54 ± 0.007 % dose/organ

Question: And the Liver uptake ([5]; 60 min)?
Answer: 4.58 ± 0.30 % dose/organ

Question: What about the Lung uptake ([5]; 60 min) of the same compound?
Answer: 0.13 ± 0.02 % dose/organ

Question: What about the Muscle uptake ([5]; 60 min) of the same compound?
Answer: 4.75 ± 1.76 % dose/organ

Question: And the Skin uptake ([5]; 60 min)?
Answer: 5.85 ± 1.99 % dose/organ

Question: What about the Spleen uptake ([5]; 60 min) of the same compound?
Answer: 0.04 ± 0.006 % dose/organ

Question: And the Thyroid uptake ([5]; 60 min)?
Answer: 0.05 ± 0.02 % dose/organ

Question: What about the Blood uptake ([5]; 120 min) of the same compound?
Answer: 1.08 ± 0.13 % dose/organ

Question: And the Brain uptake ([5]; 120 min)?
Answer: 0.016 ± 0.0005 % dose/organ

Question: And the Heart uptake ([5]; 120 min)?
Answer: 0.03 ± 0.003 % dose/organ

Question: What about the Kidney uptake ([5]; 120 min) of the same compound?
Answer: 0.36 ± 0.008 % dose/organ

Question: And the Liver uptake ([5]; 120 min)?
Answer: 4.13 ± 0.44 % dose/organ

Question: And the Lung uptake ([5]; 120 min)?
Answer: 0.10 ± 0.004 % dose/organ

Question: And the Muscle uptake ([5]; 120 min)?
Answer: 5.56 ± 3.54 % dose/organ

Question: And the Skin uptake ([5]; 120 min)?
Answer: 3.66 ± 0.68 % dose/organ

Question: What about the Spleen uptake ([5]; 120 min) of the same compound?
Answer: 0.029 ± 0.002 % dose/organ

Question: And the Thyroid uptake ([5]; 120 min)?
Answer: 0.11 ± 0.07 % dose/organ
